Measured values: patent US9782400B2, “Oncogenic ROS1 and ALK kinase inhibitor” (Macau University of Science and Technology, priority 2015, dated 2017)

Tests used:
BEAS-2B cells [1] = assay: MTT assay, human bronchial epithelial cells (Example 2A); type: cell-based; conditions: 72 h treatment
Procedure: (§1) H2228 (which express EML4-ALK fusion kinases, namely variant 3) and BEAS-2B cells were obtained from the American Type Culture Collection and cultured in environment of 5% CO2 at 37° C. in RPMI-1640 medium supplemented with 10% fetal bovine serum (FBS), 100 units/mL penicillin, and 100 μg/mL streptomycin.
(§2) The cytotoxicity effect of the compound of Formula (Ic) on H2228 NSCLC cells (harboring ALK fusion) and human bronchial epithelial (BEAS-2B) have been analyzed. H2228 cells were cultured in 96-well plates at a density of 3×10^3 cells/well, and were cultured overnight for cell adhesion. Then the cells were treated with DMSO or various concentrations of the compound of Formula (Ic) for 72 h. To each well 10 μL MTT (5 mg/mL) (Sigma) was added and the cells were incubated for another 4 h at 37° C., followed by adding 100 μL acidic isopropanol (10% SDS, and 0.01 mol/L HCl). Finally, the optical density (OD) of each well was measured at 570 nm by the Microplate Reader (Epoch, Winooski, USA). The cell viability was calculated relative to untreated controls, with results based on at least three independent experiments.

ROS1 fusion kinase = assay: Western blot of ROS1 phosphorylation and downstream signaling in HCC78 cells; type: cell-based; conditions: HCC78 cells, 1.25, 2.5, 5 μM, 72 h
Procedure: The cells were planted on 6-well plate, allowed to attach for 24 h, and treated with the various concentrations of the compound of Formula (Ic) for 72 h. Cells were washed twice with cold PBS then lysed in RIPA lysis buffer containing protease and phosphatase inhibitors. Protein concentration of the cell lysates was measured using the Bio-Rad protein Assay kit (Bio-Rad, 7 Philadelphia, Pa., USA). After equalizing the protein concentrations of the samples, 5× laemmli buffer was added and the samples were boiled at 100° C. for 5 min. Equal amounts of protein samples (30 μg) were subjected to SDS-PAGE of a 10% gel. The separated proteins were transferred to a nitrocellulose (NC) membrane, which was then exposed to 5% non-fat dried milk in TBS containing 0.1% Tween (0.1% TBST) for 1 h at room temperature, followed by overnight incubation at 4° C. with primary antibodies to GAPDH, phospho-AKT, AKT, phospho-ROS1, ROS1, phospho-ERK, ERK, phospho-STAT3, STAT3. After washing three times by TBST (5 mins/time), the membranes were incubated for 1 h at room temperature with the secondary fluorescent antibodies (1:10000 dilutions) to rabbit or mouse. The signal intensity of the membranes was detected by an LI-COR Odessy scanner (Belfast, Me., USA).

HCC78 NSCLC cells = assay: MTT assay, cell viability of HCC78 cells; type: cell-based
Procedure: (§3) To show the highly cytotoxic and selective properties of the present compound of Formula (Ic), HCC78 NSCLC cells and normal lung epithelial cells (BEAS-2B) were treated with the compound of Formula (Ic) and respective effects were observed. HCC78 NSCLC cells are non-small cell lung cancer cells with a ROS1 gene fusion. HCC78 cells were obtained from the American Type Culture Collection (ATCC) and cultured in environment of 5% CO2 at 37° C. in RPMI-1640 medium supplemented with 10% fetal bovine serum (FBS), 100 units/mL penicillin, and 100 μg/mL streptomycin. The compound of Formula (Ic) was dissolved in DMSO. Using a MTT assay, 3000 HCC78 or BEAS-2B cells were seeded on 96-well plates, cultured overnight for cell adhesion, and treated with DMSO or various concentrations of the compound of Formula (Ic) for 72 h. Three independent tests were performed. 10 μL of MTT (5 mg/mL; Sigma) were added to each well, and incubation continued for another 4 h. Then the dark blue crystals were dissolved in 100 μL of the resolved solution (10% SDS and 0.1 mM HCL). The absorbance was measured at 570 nm by a microplate reader (Tecan, Morrisville, N.C., USA).
(§4) The cell viability was calculated relative to untreated controls, with results based on at least three independent experiments. […] The compound of Formula (Ic) exerts a 3.75-fold cytotoxicity towards cancer cells than normal healthy cells.

BEAS-2B cells [2] = assay: MTT assay, normal lung epithelial cells (Example 1A); type: cell-based; conditions: Homo sapiens, 72 h treatment
Procedure: as §3, §4

HCC78 cells = assay: Apoptosis assay (Annexin-V FITC/PI, fluorescence images and flow cytometry) in HCC78 cells; type: cell-based; conditions: 72 h
Procedure: HCC78 cells (1.0×10^5 cells/well) were allowed to attach to a 6-well plate for 24 h, and the cells were treated with the various concentrations of the compound of Formula (Ic) for additional 72 h. At the end of incubation, the cells were harvested by trypsinization and washed twice with ice-cold PBS. After centrifugation and removal of the supernatants, cell pellets were resuspended in 100 μL 1× Annexin-binding buffer, 2 μL Annexin-V FITC and 2 μL PI (100 μg/ml) were added and incubated in the dark at room temperature for 15 min before further addition of 400 μL of 1× Annexin-binding buffer. The stained cells were analyzed quantitatively using a flow cytometer (BD Biosciences, San Jose, Calif., USA). […] Such cell morphology indicates apoptosis.

ALK fusion kinase = assay: Western blot of ALK phosphorylation and downstream signaling in H2228 cells; type: cell-based; conditions: H2228 cells, 1.25, 2.5, 5 μM
Procedure: Equal amounts of the protein samples (20-40 μg per lane) were separated on a 10% SDS-PAGE gel, then proteins were transferred onto Nitrocellulose (NC) membrane at 300 mA for 2.5 hours at 4° C., the membranes was probed with primary antibodies overnight at 4° C. which was then exposed to 5% non-fat dry milk in TBST for 1 h at room temperature with constant agitation and, then, rabbit or mouse fluorescent antibodies (1:1000) were added to the membrane at room temperature for 1 h. Visualization was performed using a LI-COR Odessy scanner (Belfast, Me., USA). All primary antibodies were diluted 1:1000, while their recommended secondary antibodies were diluted 1:10000.

H2228 cells [3] = assay: Colony formation assay in H2228 cells; type: cell-based; conditions: 14 days
Procedure: H2228 cells were seeded to six-well plate (1000/well). Then cells were exposed to various doses of the compound of Formula (Ic), namely 1.25, 2.5 and 5 μM. After 14 days, colonies were fixed with 4% paraformaldehyde for 15 min and stained with crystal violet for 10-15 min. Finally, the staining solution was slowly washed off with water and the cells were air dried. Clones with more than 50 cells were counted under a microscope.

H2228 NSCLC cells = assay: MTT assay, cell viability of H2228 cells; type: cell-based; conditions: Homo sapiens, NCI-H2228, 72 h treatment
Procedure: as §1, §2

H2228 cells [4] = assay: Apoptosis assay (Annexin-V FITC/PI flow cytometry) in H2228 cells; type: cell-based; conditions: 48 h
Procedure: H2228 cells (1.0×10^5 cells/well) were allowed to attach in a 6-well plate for 24 h. The cells were treated with various concentrations of the compound of Formula (Ic), namely 1.25, 2.5 and 5 μM, for 48 h. Subsequently, cells were trypsinized, washed with PBS twice, then the cells were resuspended in a total volume of 100 μL binding buffer with 2 μL Annexin-V FITC and 5 μL propidine iodide (PI). Finally, the cells were gently mixed and incubated in the dark at room temperature for 15 min, before further addition of 400 μL of 1× Annexin-binding buffer, the number of apoptotic cells was quantified using a Flow Cytometer (BD Biosciences, San Jose, Calif., USA) within 1 h. Data were analyzed by Flow Jo software.

ROS1-positive NSCLC = conditions: NSCLC patients harboring ROS1 rearrangements; cited from earlier work

Compound | IC50 (BEAS-2B cells [1]) | ROS1 phosphorylation and downstream signaling involving Erk1/2, STAT3 and AKT (ROS1 fusion kinase) | fold cytotoxicity towards cancer cells than normal healthy cells (HCC78 NSCLC cells; HCC78 versus BEAS-2B, 72 h) | IC50 (HCC78 NSCLC cells; Homo sapiens, HCC78 cells, MTT, 72 h treatment) | IC50 (BEAS-2B cells [2]) | cell morphology indicating apoptosis (fluorescence images) (HCC78 cells; HCC78 cells, 2.5 μM) | induction of apoptosis (flow cytometry) (HCC78 cells; HCC78 cells, 1.25, 2.5, 5 μM) | ALK phosphorylation and downstream PI3K/AKT, MEK/ERK and JAK/STAT3 signaling pathways (ALK fusion kinase) | formation of H2228 cell colonies (H2228 cells [3]; 5 μM) | formation of H2228 cell colonies (H2228 cells [3]; 1.25, 2.5, 5 μM) | IC50 (H2228 NSCLC cells) | induction of apoptosis (flow cytometry) (H2228 cells [4]; H2228 cells, 1.25, 2.5, 5 μM) | level of cell apoptosis compared with control group (H2228 cells [4]; H2228 cells, concentration of at least 5 μM) | median progression-free survival (ROS1-positive NSCLC) | objective response rate (ROS1-positive NSCLC)
COc1ccc(CNC(=O)Cn2nc(-c3ccccc3)c3cnc4ccccc4c32)cc1 [compound of Formula (Ic)] | 6.51 ± 1.08 µM | dose-dependent decrease | 3.75 fold | 1.62 µM | 6.08 µM | detach from the surface and are small | induction of apoptosis on HCC78 cells in a concentration dependent manner | significant suppression | no visible colonies | inhibited the formation of H2228 cell colonies in a dose-dependent manner | 2.71 ± 0.92 µM | induction of apoptosis of H2228 cells in a concentration-dependent manner | significant levels of cell apoptosis |  | 
C[C@@H](Oc1cc(-c2cnn(C3CCNCC3)c2)cnc1N)c1c(Cl)ccc(F)c1Cl [crizotinib] |  |  |  |  |  |  |  |  |  |  |  |  |  | 19.2 months | 72%
